Assay results published in patent US6936608B2, “Imidazo-triazine derivatives as ligands for GABA receptors” (Merck Sharp & Dohme Ltd., priority 2000, dated 2005).
Counter-ions that a name gives are not always drawn.

SMILES	melting point
CC(C)(F)c1cnn2c(-c3ccc(F)c(-c4cccnc4)c3)cnc2n1 (as salt: hydrochloride) [Example 3, 3-(1-Fluoro-1-methylethyl)-7-[4-fluoro-3-(pyridin-3-yl)phenyl]imidazo[1,2-b][1,2,4]triazine]	113 to 126 °C
Cc1cnn2c(-c3cccc(-c4ccccc4C#N)c3)cnc2n1 [Example 1, 3′-(3-methylimidazo[1,2-b][1,2,4]triazin-7-yl)biphenyl-2-carbonitrile]	211 to 216 °C
N#Cc1ccccc1-c1cc(-c2cnc3nc(C(F)(F)F)cnn23)ccc1F [Example 2, 2′-Fluoro-5′-(3-trifluoromethylimidazo[1,2-b][1,2,4]triazin-7-yl)biphenyl-2-carbonitrile]	168 to 174 °C
N#Cc1ccccc1-c1cc(-c2cnc3nccnn23)ccc1F [Example 5, 2′-Fluoro-5′-(imidazo[1,2-b][1,2,4]triazin-7-yl)biphenyl-2-carbonitrile]	211 to 215 °C
Fc1ccc(-c2cnc3nc(C(F)(F)F)cnn23)cc1-c1ccccn1 [Example 6, 7-[4-Fluoro-3-(pyridin-2-yl)phenyl]-3-trifluoromethylimidazo[1,2-b][1,2,4]triazine]	128 to 131 °C
N#Cc1ccccc1-c1cccc(-c2cnc3nc(C(F)(F)F)cnn23)c1F [Example 7, 2′-Fluoro-3′-(3-trifluoromethylimidazo[1,2-b][1,2,4]triazin-7-yl)biphenyl-2-carbonitrile]	167 to 168 °C
CC(C)(O)c1cnn2c(-c3ccc(F)c(-c4cccnc4)c3)cnc2n1 [Example 14, 2-{7-[4-Fluoro-3-(pyridin-3-yl)phenyl]imidazo[1,2-b][1,2,4]triazin-3-yl}propan-2-ol]	199 to 200 °C
CC(C)(O)c1cnn2c(-c3ccc(F)c(-c4ccncc4)c3)cnc2n1 [Example 15, 2-{7-[4-Fluoro-3-(pyridin-4-yl)phenyl]imidazo[1,2-b][1,2,4]triazin-3-yl}propan-2-ol]	233 to 237 °C
CC(C)(O)c1cnn2c(-c3ccc(F)c(-c4ccccc4C#N)c3)cnc2n1 [Example 16, 2′-Fluoro-5′-[3-(1-hydroxy-1-methylethyl)imidazo[1,2-b][1,2,4]triazin-7-yl]biphenyl-2-carbonitrile]	187 °C
CC(C)(O)c1cnn2c(-c3cccc(-c4ccncc4)c3F)cnc2n1 [Example 19, 2-{7-[2-Fluoro-3-(pyridin-4-yl)phenyl]imidazo[1,2-b][1,2,4]triazin-3-yl}propan-2-ol]	221 to 223 °C
CC(C)(O)c1cnn2c(-c3cccc(-c4ccccc4C#N)c3)cnc2n1 [Example 22, 3′-[3-(1-Hydroxy-1-methylethyl)imidazo[1,2-b][1,2,4]triazin-7-yl]biphenyl-2-carbonitrile]	166 °C
CC(C)(F)c1cnn2c(-c3ccc(F)c(-c4c(F)cccc4C#N)c3)cnc2n1 [Example 25, 6,2′-Difluoro-5′-[3-(1-fluoro-1-methylethyl)imidazo[1,2-b][1,2,4]triazin-7-yl]biphenyl-2-carbonitrile]	187 to 188 °C
CC(C)(O)c1cnn2c(-c3ccc(F)c(-c4ccc(F)cn4)c3)cnc2n1 [Example 29, 2-{7-[4-Fluoro-3-(5-fluoropyridin-2-yl)phenyl]imidazo[1,2-b][1,2,4]triazin-3-yl}propan-2-ol]	222 °C
